Legend:
Format in all cases: cell-based
Klebsiella pneumonia = assay: MIC against Gram-negative bacteria: Klebsiella pneumonia; conditions: 5×10^5 CFU/mL
How it was run: (§1)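 Broth microdilution, LB medium, final inoculum 5×10^5 CFU/mL from McFarland 0.5 cultures. Recombinant human EGF domain proteins tested in two-fold steps, n=3. MIC: lowest concentration, no growth.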

Pseudomonas aeruginosa = assay: MIC against Gram-negative bacteria: Pseudomonas aeruginosa; conditions: 5×10^5 CFU/mL
How it was run: as §1

Serratia marcescens = assay: MIC against Gram-negative bacteria: Serratia marcescens; conditions: 5×10^5 CFU/mL
How it was run: as §1

Enterobacter cloacae = assay: MIC against Gram-negative bacteria: Enterobacter cloacae; conditions: 5×10^5 CFU/mL
How it was run: as §1

E. coli BL21 = assay: MIC against Gram-negative bacteria: E. coli BL21; conditions: 5×10^5 CFU/mL
How it was run: as §1

Citrobacter diversus = assay: MIC against Gram-negative bacteria: Citrobacter diversus; conditions: 5×10^5 CFU/mL
How it was run: as §1

Proteus vulgaris = assay: MIC against Gram-negative bacteria: Proteus vulgaris; conditions: 5×10^5 CFU/mL
How it was run: as §1

Moraxella catarrhalis = assay: MIC against Gram-negative bacteria: Moraxella catarrhalis; conditions: 5×10^5 CFU/mL
How it was run: as §1

Proteus mirabilis = assay: MIC against Gram-negative bacteria: Proteus mirabilis; conditions: 5×10^5 CFU/mL
How it was run: as §1

E. coli DH5α = assay: Antibacterial activity: MIC and growth curve against E. coli DH5α in 96-well plate; conditions: minimal inhibitory concentration against E. coli DH5α; 96-well plate, 5×10^5 CFU/mL, 37° C., judged after 8 h
How it was run: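 MIC taken as lowest protein level with no bacterial growth, tracked by A600 every 30 min during 37 °C, 175 rpm culture. Two-fold protein series 50-12.5 μg/mL final, triplicate wells, against 5×10^5 CFU/mL of LB-washed mid-log cells.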

Aeromonas hydrophila = assay: MIC against Gram-negative bacteria: Aeromonas hydrophila; conditions: 5×10^5 CFU/mL
How it was run: as §1

[1] = 10 h cultivation at 37° C., two-fold serial dilution

PRT215 (YTQCTDGYEWDPVRQQCKDIDECDIVPDACKGGMKCVNHYGGYLCL; listed as Homo sapiens)
MIC (μg/mL) K. pneumonia (Klebsiella pneumonia; K. pneumonia, 10 h cultivation at 37° C.): 100 µg/mL
MIC (μg/mL) P. aeruginosa (Pseudomonas aeruginosa; P. aeruginosa, 10 h cultivation at 37° C.): 25 µg/mL
MIC (μg/mL) S. marcescens (Serratia marcescens; S. marcescens, 10 h cultivation at 37° C.): 12.5 µg/mL
MIC (μg/mL) E. cloacae (Enterobacter cloacae; E. cloacae, 10 h cultivation at 37° C.): 25 µg/mL
MIC (μg/mL) E. coli BL21 (E. coli BL21; 10 h cultivation at 37° C.): 12.5 µg/mL
MIC (μg/mL) C. diversus (Citrobacter diversus; C. diversus, 10 h cultivation at 37° C.): 25 µg/mL
MIC (μg/mL) P. vulgaris (Proteus vulgaris; P. vulgaris, 10 h cultivation at 37° C.): 12.5 µg/mL
MIC (μg/mL) M. catarrhalis (Moraxella catarrhalis; M. catarrhalis, 10 h cultivation at 37° C.): 12.5 µg/mL
MIC (μg/mL) P. mirabilis (Proteus mirabilis; P. mirabilis, 10 h cultivation at 37° C.): 25 µg/mL
MIC (E. coli DH5α): 25 µg/mL
MIC (μg/mL) A. hydrophila (Aeromonas hydrophila; A. hydrophila, 10 h cultivation at 37° C.): 12.5 µg/mL

PRT489 (CDNGGTWEQGQCACLPGFSGDRCQLQTRCQNG; listed as Homo sapiens)
MIC against K. pneumonia (Klebsiella pneumonia; 96-well plate, 37° C., 10 h): 25 µg/mL
MIC against P. aeruginosa (Pseudomonas aeruginosa; 96-well plate, 37° C., 10 h): 12.5 µg/mL
MIC against S. marcescens (Serratia marcescens; 96-well plate, 37° C., 10 h): 12.5 µg/mL
MIC against E. cloacae (Enterobacter cloacae; 96-well plate, 37° C., 10 h): 12.5 µg/mL
MIC against E. coli BL21 (E. coli BL21; 96-well plate, 37° C., 10 h): 12.5 µg/mL
MIC against C. diversus (Citrobacter diversus; 96-well plate, 37° C., 10 h): 12.5 µg/mL
MIC against P. vulgaris (Proteus vulgaris; 96-well plate, 37° C., 10 h): 25 µg/mL
MIC against M. catarrhalis (Moraxella catarrhalis; 96-well plate, 37° C., 10 h): 25 µg/mL
MIC against P. mirabilis (Proteus mirabilis; 96-well plate, 37° C., 10 h): 50 µg/mL
MIC (E. coli DH5α): 12.5 µg/mL
MIC against A. hydrophila (Aeromonas hydrophila; 96-well plate, 37° C., 10 h): 25 µg/mL

PRT1495 (KANCSTTCFNGGTCFYPGKCICPPGLEGE; listed as Homo sapiens)
MIC (μg/mL) K. pneumonia (Klebsiella pneumonia; Klebsiella pneumonia, 96-well plate, 37° C., 10 h): 25 µg/mL
MIC (μg/mL) P. aeruginosa (Pseudomonas aeruginosa; Pseudomonas aeruginosa, 96-well plate, 37° C., 10 h): 25 µg/mL
MIC (μg/mL) S. marcescens (Serratia marcescens; Serratia marcescens, 96-well plate, 37° C., 10 h): 25 µg/mL
MIC (μg/mL) E. cloacae (Enterobacter cloacae; Enterobacter cloacae, 96-well plate, 37° C., 10 h): 12.5 µg/mL
MIC (μg/mL) E. coli BL21 (E. coli BL21; 96-well plate, 37° C., 10 h): 12.5 µg/mL
MIC (μg/mL) C. diversus (Citrobacter diversus; Citrobacter diversus, 96-well plate, 37° C., 10 h): 50 µg/mL
MIC (μg/mL) P. vulgaris (Proteus vulgaris; Proteus vulgaris, 96-well plate, 37° C., 10 h): 25 µg/mL
MIC (μg/mL) M. catarrhalis (Moraxella catarrhalis; Moraxella catarrhalis, 96-well plate, 37° C., 10 h): 50 µg/mL
MIC (μg/mL) P. mirabilis (Proteus mirabilis; Proteus mirabilis, 96-well plate, 37° C., 10 h): 50 µg/mL
MIC (E. coli DH5α): 25 µg/mL
MIC (μg/mL) A. hydrophila (Aeromonas hydrophila; Aeromonas hydrophila, 96-well plate, 37° C., 10 h): 12.5 µg/mL

PRT517 (CQCFGHAESCDDVTGECLNCKDHTGGPYCDKCLPGFYGEPTKGTSEDCQP; listed as Homo sapiens)
MIC against K. pneumonia (Klebsiella pneumonia; 96-well plate, 37° C., 10 h): 50 µg/mL
MIC against P. aeruginosa (Pseudomonas aeruginosa; 96-well plate, 37° C., 10 h): 25 µg/mL
MIC against S. marcescens (Serratia marcescens; 96-well plate, 37° C., 10 h): 25 µg/mL
MIC against E. cloacae (Enterobacter cloacae; 96-well plate, 37° C., 10 h): 25 µg/mL
MIC against E. coli BL21 (E. coli BL21; 96-well plate, 37° C., 10 h): 12.5 µg/mL
MIC against C. diversus (Citrobacter diversus; 96-well plate, 37° C., 10 h): 25 µg/mL
MIC against P. vulgaris (Proteus vulgaris; 96-well plate, 37° C., 10 h): 12.5 µg/mL
MIC against M. catarrhalis (Moraxella catarrhalis; 96-well plate, 37° C., 10 h): 50 µg/mL
MIC against P. mirabilis (Proteus mirabilis; 96-well plate, 37° C., 10 h): 25 µg/mL
MIC (E. coli DH5α): 25 µg/mL
MIC against A. hydrophila (Aeromonas hydrophila; 96-well plate, 37° C., 10 h): 12.5 µg/mL

PRT1155 (QSVSCLNNLCLHQSLCIPDQSFSYSCLCTLGWVGRYCE; listed as Homo sapiens)
MIC K. pneumonia (Klebsiella pneumonia; [1]): 12.5 µg/mL
MIC P. aeruginosa (Pseudomonas aeruginosa; [1]): 25 µg/mL
MIC S. marcescens (Serratia marcescens; [1]): 12.5 µg/mL
MIC E. cloacae (Enterobacter cloacae; [1]): 12.5 µg/mL
MIC E. coli BL21 (E. coli BL21; [1]): 12.5 µg/mL
MIC C. diversus (Citrobacter diversus; [1]): 12.5 µg/mL
MIC P. vulgaris (Proteus vulgaris; [1]): 25 µg/mL
MIC M. catarrhalis (Moraxella catarrhalis; [1]): 25 µg/mL
MIC P. mirabilis (Proteus mirabilis; [1]): 50 µg/mL
MIC (E. coli DH5α): 25 µg/mL
MIC A. hydrophila (Aeromonas hydrophila; [1]): 25 µg/mL

Reference: US9833497B2, “Human originated EGF domain proteins and use of the same” (CHENGDU SOURCEBIO LIMITED-LIABILITY COMPANY, priority 2013, dated 2017)
